In paper PMC5007270, “[^68Ga]NODAGA-RGD – Metabolic stability, biodistribution, and dosimetry data from patients with hepatocellular carcinoma and liver cirrhosis” (European Journal of Nuclear Medicine and Molecular Imaging, 2016):
“Also recorded” adds a separate entry of the source. Read-outs that look alike come from different tables or passages of the source. Values belong to the compound of their own block, whether it stands above or below them.

Experiments:
[1] = in vivo; cited from earlier work
From the text: The radiation dose estimates from this study indicate low radiation burden for patients during a [^68Ga]NODAGA-RGD PET scan. The total effective dose was in the range of other radiolabeled RGD-peptides used in clinical studies (e.g., [^18F]Galacto-RGD, Fluciclatide, and RGD-K5; for overview see [6]) as well as other commonly used oncologic PET tracers such as [^18F]FDG (between 20 and 30 μSv/MBq). Even if 200 MBq [^68Ga]NODAGA-RGD (average in this study was 167 ± 10 MBq) would have been injected, the effective dose would have only been 4.3 mSv. This is well within the limits of risk c ...

[2] = Organ/tissue residence times; type: in vivo, human; conditions: all patients
From the text: (§1) To obtain the time activity curves and to calculate the residence times, VOIs were placed in the corresponding organs (liver, urine bladder, spleen, kidneys, small intestine, muscle, lung, and left ventricle). The diameter of the VOIs was set to 2.5 cm for all organs with the exception of the liver, where it was set to 5 cm and placed in the center of the corresponding organ to avoid underestimated organ radioactivity because of partial-volume effects. Due to patient movement, the PET/CTs were fused between second and third scan to guarantee the identical position of VOIs at different scans.
Because of the limited number of measured time points, a monoexponential fit based on the decay corrected data was used for calculation of organ residence times.
(§2) Urinary bladder radioactivity was determined from three VOIs at least 2.5 cm in diameter drawn inside the bladder. Subsequently, the urinary bladder volume was measured by drawing freehand ROIs around bladder contour at each of the three emission scans. The volume was calculated by HERMES software. The results were used to calculate the urine bladder content residence time.

[3] = PET/CT biodistribution (%ID/l, SUV); type: in vivo, human; conditions: for SUV at 1 h / tissue uptake dose at 1 h / SUV: human, total radioactivity; for SUV at 1 h / SUV: intravenous; for SUV at 1 h / tissue uptake dose at 1 h: 60 min p.i.; for tissue uptake dose at 1 h: PET VOI; for SUV: average of all patients
Protocol: For each patient, a total of three PET/CT scans were performed using a Discovery PET/CT 690 VCT scanner (GE Healthcare, Milwaukee, WI, USA). The patients were allowed to urinate after the second scan and a sample of the urine was collected for metabolic analysis. For all patients, the region from upper thigh to the skull/cranium was covered by a seven-bed emission scan (2 min per bed position; field of view is 15.2 cm with overlapping acquisitions, resulting in a length of 12.3 cm for each bed position) performed in caudocranial direction. The mean starting times of the three scans were 8.3 ± 2.1, 36.9 ± 2.8, and 75.1 ± 3.4 min after tracer injection, respectively. Injected activity ranged from 154 to 184 MBq [^68Ga]NODAGA-RGD corresponding with approx. 10–12 μg peptide. X-ray CT transmission scans were performed twice, before the first and the third scan, to correct for gamma ray attenuation and to obtain the anatomical data required for drawing of the volume of interest (VOI). A second CT scan was required to guarantee the same positioning of VOIs (as for first and second scan) for image analysis because of patient movement.
Positron emission data were reconstructed using an ordered-subsets expectation maximization algorithm. Reconstructions were performed with two iterations and 24 subsets. The images were corrected for attenuation using CT data collected over the same regions as for emission imaging. For image analysis, Hermes software (Version P5 gold 4.4-B; Hermes Medical Solutions AB, Stockholm, Sweden) was used. Images were calibrated to Bq/ml for radiation dosimetry estimates.
as §1

HCC lesions = test: Tracer accumulation in HCC lesions (PET/CT); type: in vivo, human; conditions: nine patients, HCC lesions identified by CT/MRI
From the text: The study included nine patients, and was approved by the ethics committee of the Medical University of Innsbruck and the Austrian Competent Authority (BASG, EudraCT No. 2013-003741-42). Informed written consent was obtained from all patients. Inclusion criteria were untreated HCC lesions in patients with liver cirrhosis Child–Pugh class A or B. Diagnosis and exact number and size of HCC lesions was confirmed by a multiphasic CT or MRI according to EASL/EORTC guidelines. Exclusion criteria were decompensated liver cirrhosis Child–Pugh class C, uncontrolled complications of portal hypertension (refractory ascites, advanced hepatic encephalopathy or large esophageal varices), and advanced renal insufficiency with an eGFR below 30 ml/min. […]
as §1, with “Due to patient movement, the PET/CTs were fused between second and third scan to guarantee the identical position of VOIs at different scans.” left out

[4] = Radiation dosimetry (OLINDA/EXM); type: in vivo, human
Protocol: For dosimetry calculations, the OLINDA/EXM software (Version 1.1, copyright Vanderbilt University, 2007) was used. Radioactivity in the source organs was determined by multiplying the measured radioactivity concentration (Bq/ml) by the organ masses from the OLINDA adult men phantom; the data were body weight- and lean body mass index-corrected; furthermore, kidney mass was patient-corrected by CT scan.
as §2

[5] = Safety and tolerability, phase I clinical study; type: in vivo, human
From the text: The study included nine patients, and was approved by the ethics committee of the Medical University of Innsbruck and the Austrian Competent Authority (BASG, EudraCT No. 2013-003741-42). Informed written consent was obtained from all patients. Inclusion criteria were untreated HCC lesions in patients with liver cirrhosis Child–Pugh class A or B. Diagnosis and exact number and size of HCC lesions was confirmed by a multiphasic CT or MRI according to EASL/EORTC guidelines. Exclusion criteria were decompensated liver cirrhosis Child–Pugh class C, uncontrolled complications of portal hypertension (refractory ascites, advanced hepatic encephalopathy or large esophageal varices), and advanced renal insufficiency with an eGFR below 30 ml/min. Baseline examinations included CT or MRI scan, physical examination, ECG, and laboratory tests (including creatinine, blood count, transaminases, bilirubin, and coagulation parameters) not older than 14 days prior to the PET scan. Physical examination and laboratory tests were repeated on the day after the PET scan and during further follow-up visits to assess possible adverse reactions.

[6] = Metabolite analysis of blood samples by RP-HPLC; type: in vivo; conditions: human blood 30 and 60 min p.i., n = 3; acetonitrile extraction, RP-HPLC C18, 30-s fractions, gamma counter
Protocol: (§3) Blood samples were collected 30 and 60 min and urine 60 min after tracer injection. Blood samples (approx. 15 ml) were centrifuged at 2,500 rpm for 5 min. The supernatant was treated with acetonitrile (1:1) and centrifuged at 3,000 rpm for 3 min. To remove the organic solvent, 1 ml of the supernatant was treated with an argon stream and approx. 300 μl of the remaining solution was analyzed. For urine analysis, an aliquot of 1 ml was passed through a sterile filter (Millex GV, Merck KGaA, Darmstadt, Germany), washed with 1 ml water (which was separately collected) and 50 μl of the filtrate was analyzed.
(§4) Analysis of metabolites was carried out using reversed-phase high-performance liquid chromatography (RP-HPLC) systems. For blood sample analysis, a Dionex P680 Pump (Germering, Germany) with a sample loop of 1 ml and a SRD Nucleosil 120-3C18 column (150 × 3 mm; Vienna, Austria) were used and fractions of 30 s were collected manually and counted in a 2480 Wizard^2 3″ automatic gamma counter (PerkinElmer, Vienna, Austria). For urine analysis, a Dionex Ultimate 3000 RS with an ACE 3C18 column (150 × 3 mm; Aberdeen, Great Britain) and a raytest Gabi radiometric detector (raytest Isotopenmessgeraete GmbH, Straubenhardt, Germany) were used. […]

[7] = Metabolite analysis of urine samples by RP-HPLC; type: in vivo; conditions: human urine 60 min p.i., n = 6; RP-HPLC C18, radiometric detector
Protocol: as §3, §4

[8] = parameters: method as in PMID 18483090; conditions: 60 min after injection; cited from earlier work
[9] = i.v., OLINDA/EXM, individual residence times, mean of patients
[10] = i.v., OLINDA/EXM, individual residence times, mean of patients, voiding after second scan

Compound: OC[C@H]1OC(O)[C@H]([18F])[C@@H](O)[C@@H]1O (stereo partly drawn) [[^18F]FDG, 2-[F-18]fluoro-2-deoxy-D-glucose]
effective dose [1]: 20-30 μSv/MBq

sum of the mean residence time ([2]; all organs): 1.11 h
residence time, Remainder of body, Mean [2]: 42.2 (MBq × h/MBq) × 10^2
residence time, Blood, Mean ([2]; monoexponential fit): 0.011 h
residence time, Kidneys, Mean ([2]; monoexponential fit): 0.054 h
residence time, Liver, Mean ([2]; monoexponential fit): 0.113 h
residence time, Lungs, Mean ([2]; monoexponential fit): 0.011 h
residence time, Muscle, Mean ([2]; monoexponential fit): 0.246 h
residence time, Small intestine, Mean ([2]; monoexponential fit): 1.6 (MBq × h/MBq) × 10^2
residence time, Spleen, Mean ([2]; monoexponential fit): 1.8 (MBq × h/MBq) × 10^2
SUV at 1 h ([3]; bladder, patients, read-out: median SUV, bladder): 31 SUV
SUV at 1 h ([3]; blood, patients, read-out: median SUV, blood): 0.72 SUV
tissue uptake dose at 1 h ([3]; blood, patients, read-out: %ID/l, blood): 0.56 ± 0.43 %ID
SUV at 1 h ([3]; intestine, patients, read-out: median SUV, intestine): 0.88 SUV
tissue uptake dose at 1 h ([3]; intestine, patients, read-out: %ID/l, intestine): 0.54 ± 0.39 %ID
SUV at 1 h ([3]; kidneys, patients, read-out: median SUV, kidneys): 4.5 SUV
SUV at 1 h ([3]; liver, patients, read-out: median SUV, liver): 2.9 SUV
SUV ([3]; liver, first scan (8 ± 2 min p.i.), read-out: mean SUV in the liver, first image): 3.8 SUV
SUV ([3]; liver, last scan (75 ± 4 min p.i.), read-out: mean SUV in the liver, last image): 2.9 SUV
SUV at 1 h ([3]; lung, patients, read-out: median SUV, lung): 0.39 SUV
tissue uptake dose at 1 h ([3]; lung, patients, read-out: %ID/l, lung): 0.22 ± 0.05 %ID
SUV at 1 h ([3]; muscle, patients, read-out: median SUV, muscle): 0.26 SUV
tissue uptake dose at 1 h ([3]; muscle, patients, read-out: %ID/l, muscle tissue): 0.16 ± 0.8 %ID
SUV at 1 h ([3]; spleen, patients, read-out: median SUV, spleen): 3.8 SUV
radioactivity concentration in the bladder after voiding, % of the value before voiding ([3]; voiding between second and third scan (60 min p.i.), Fig. 3): approx. 20%
effective dose, 30-min bladder voiding model ([4]; OLINDA/EXM, 30-min bladder voiding model): 10.9 ± 1.9 μSv/MBq
absorbed radiation dose, urinary bladder wall ([4]; highest absorbed dose, OLINDA/EXM): 0.26 ± 0.09 mSv/MBq
effective dose if 200 MBq injected ([4]; hypothetical injection of 200 MBq): 4.3 mSv
Radiation dose estimate, Adrenals, Mean [4, 9]: 7.88 μSv/MBq
Radiation dose estimate, Brain, Mean [4, 9]: 5.21 μSv/MBq
Radiation dose estimate, Breast, Mean [4, 9]: 5.01 μSv/MBq
Radiation dose estimate, Gallbladder wall, Mean [4, 9]: 8.67 μSv/MBq
Radiation dose estimate, Heart wall, Mean [4, 9]: 6.33 μSv/MBq
Radiation dose estimate, Kidneys, Mean [4, 9]: 69.00 μSv/MBq
Radiation dose estimate, Liver, Mean [4, 9]: 32.00 μSv/MBq
Radiation dose estimate, Lower large intestinal wall, Mean [4, 9]: 8.98 μSv/MBq
Radiation dose estimate, Lungs, Mean [4, 9]: 7.17 μSv/MBq
Radiation dose estimate, Muscle, Mean [4, 9]: 6.30 μSv/MBq
Radiation dose estimate, Osteogenic cells, Mean [4, 9]: 8.10 μSv/MBq
Radiation dose estimate, Pancreas, Mean [4, 9]: 7.99 μSv/MBq
Radiation dose estimate, Red marrow, Mean [4, 9]: 5.47 μSv/MBq
Radiation dose estimate, Skin, Mean [4, 9]: 5.03 μSv/MBq
Radiation dose estimate, Small intestinal wall, Mean [4, 9]: 15.80 μSv/MBq
Radiation dose estimate, Spleen, Mean [4, 9]: 48.20 μSv/MBq
Radiation dose estimate, Stomach wall, Mean [4, 9]: 1.95 μSv/MBq
Radiation dose estimate, Testes, Mean [4, 9]: 7.15 μSv/MBq
Radiation dose estimate, Thymus, Mean [4, 9]: 5.57 μSv/MBq
Radiation dose estimate, Thyroid, Mean [4, 9]: 5.39 μSv/MBq
Radiation dose estimate, Total body, Mean [4, 9]: 7.29 μSv/MBq
Radiation dose estimate, Upper large intestinal wall, Mean [4, 9]: 7.75 μSv/MBq
Effective dose, Mean [4, 10]: 21.50 μSv/MBq
Radiation dose estimate, Urinary bladder wall, Mean [4, 10]: 262.00 μSv/MBq
Compound: N=C(N)NCCC[C@@H]1NC(=O)[C@H](CCCCNC(=O)CCC(C(=O)O)N2CCN(CC(=O)O)CCN(CC(=O)O)CC2)NC(=O)[C@@H](Cc2ccccc2)NC(=O)[C@H](CC(=O)O)NC(=O)CNC1=O (stereo partly drawn) [[^68Ga]NODAGA-RGD, metal not drawn]
elimination ([3]; patients, PET): rapid and predominantly renal elimination
uptake in HCC compared with background liver tissue (HCC lesions): No increased uptake; also recorded: no increased radioactivity concentration
changes in kidney, liver, or heart function during follow-up ([5]; clinical and biochemical investigations, nine patients): no significant changes
drug-/procedure-related adverse effects ([5]; nine male patients with HCC and liver cirrhosis, i.v. 154-184 MBq): no drug-related adverse effects were observed; also recorded: no procedure-related adverse reactions were observed
tolerability ([5]; nine male patients with HCC and liver cirrhosis, i.v. 154-184 MBq (approx. 10-12 μg peptide)): well tolerated in all patients
metabolites in blood [6]: No metabolites could be detected; also recorded: No metabolites were detected
metabolites in urine [7]: No metabolites could be detected; also recorded: No metabolites were detected

Compound: [^18F]Fluciclatide
intact tracer in blood [8]: 74%
